Among the data in patent US20210244712A1, “METHODS FOR TREATING PATIENTS WITH CANCER HAVING DEFECTS IN CYCLIN D REGULATION” (NysnoBio Ireland DAC, priority 2018, published 2021) are IC50 and EC50 values, retold here.

Each structure is given as a SMILES string.

Common to all, as to assay: Cell proliferation assay
Assay type in all cases: cell-based

One experiment has as its system Mino. The note with it: Homo sapiens; Mantle Cell Mino; overexpression of Cyclin D. In short, it runs like this: (§1)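 4×10^4 cells/ml plated, o/n 37° C./5% CO2; cpd added in triplicate, 72 hrs. Wash PBS, pNPP 10 mM in 0.1M NaOAc pH 5.5, 2 h 37° C. dark, stop NaOH, A405–A620. % inhibition vs DMSO.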
The test system of a further experiment is SK-OV-3. The note with it: Homo sapiens, Table 7a, Ovarian (SKOV3). Put shortly: as §1
The subject of the next experiment is BT-474. Conditions: Homo sapiens, 72 hrs, read-out: Cell Viability: IC50. Put shortly: as §1
Another experiment concerns Caco-2. The note with it: Homo sapiens, 72 hrs, read-out: Cell Viability: IC50. In short, it runs like this: as §1
In the next experiment the test system is Calu-6. Conditions: Homo sapiens, 72 hrs, read-out: Cell Viability: IC50. In short, it runs like this:
as §1

For a further experiment, the system named is DLD-1. Conditions: Homo sapiens, 72 hrs, read-out: Cell Viability: IC50. Put shortly: as §1
Another experiment concerns HCC1954. The note with it: Homo sapiens, 72 hrs, read-out: Cell Viability: IC50. Put shortly: as §1
The test system of a further experiment is HCC38. Conditions: Homo sapiens, 72 hrs, read-out: Cell Viability: IC50. In short, it runs like this: as §1
The next experiment relates to HCT-8. The note with it: Homo sapiens, 72 hrs, read-out: Cell Viability: IC50. In short, it runs like this:
as §1

A further experiment relates to HT-29. The note with it: Homo sapiens, 72 hrs, read-out: Cell Viability: IC50. Put shortly: as §1
The next experiment relates to Hutu 80. Conditions: Homo sapiens, HuTu80, 72 hrs, read-out: Cell Viability: IC50. Put shortly:
as §1

In the next experiment the test system is JIMT-1. The note with it: Homo sapiens, 72 hrs, read-out: Cell Viability: IC50. In short, it runs like this: as §1
Another experiment concerns LS174T. Conditions: Homo sapiens, 72 hrs, read-out: Cell Viability: IC50. Put shortly: as §1
A further experiment deals with MDA-MB-157. Conditions: Homo sapiens, 72 hrs, read-out: Cell Viability: IC50. In short, it runs like this: as §1
Another experiment has as its system MDA-MB-231. Conditions: Homo sapiens, 72 hrs, read-out: Cell Viability: IC50. Put shortly: as §1
The next experiment concerns MDA-MB-453. The note with it: Homo sapiens, 72 hrs, read-out: Cell Viability: IC50. Put shortly:
as §1

Another experiment has as its system MDA-MB-468. Conditions: Homo sapiens, 72 hrs, read-out: Cell Viability: IC50. Put shortly: as §1
For the next experiment, the system named is NC-H196. The note with it: 72 hrs, read-out: Cell Viability: IC50. In short, it runs like this: as §1
Another experiment deals with NCl-H1395. Conditions: 72 hrs, read-out: Cell Viability: IC50. In short, it runs like this: as §1
In the next experiment the test system is NCl-H1703. The note with it: 72 hrs, read-out: Cell Viability: IC50. Put shortly:
as §1

The next experiment relates to NCl-H226. The note with it: 72 hrs, read-out: Cell Viability: IC50. In short, it runs like this: as §1
The test system of the next experiment is NCl-H292. Conditions: 72 hrs, read-out: Cell Viability: IC50. Put shortly: as §1
A further experiment deals with OVISE. The note with it: 72 hrs, read-out: Cell Viability: IC50. In short, it runs like this:
as §1

In the next experiment the test system is OVSAHO. Conditions: Homo sapiens, 72 hrs, read-out: Cell Viability: IC50. In short, it runs like this: as §1
The test system of a further experiment is OVTOKO. The note with it: 72 hrs, read-out: Cell Viability: IC50. Put shortly:
as §1

Another experiment concerns SW527. Conditions: 72 hrs, read-out: Cell Viability: IC50. Put shortly: as §1

For the molecule `Cc1ccccc1C(=O)Nc1nc(NC(=O)c2ccccc2C)n(-c2ccc(OC(F)(F)F)cc2)n1` [Compound 42, N,N′-(1-(4-(trifluoromethoxy)phenyl)-1H-1,2,4-triazole-3,5-diyl)bis(2-methylbenzamide)], in the experiment on Mino, the IC50 was 0.345 µM. Moreover, the EC50 in the experiment on SK-OV-3 worked out at 0.376 µM.

Turning to `Cc1ccccc1C(=O)Nc1nc(NC(=O)c2ccccc2C)n(-c2ccccc2)n1` [Compound F, 2-methyl-N-[5-[(2-methylbenzoyl)amino]-1-phenyl-1,2,4-triazol-3-yl]benzamide], the IC50 in the experiment with BT-474 is 3.03 µM; with Caco-2, greater than 10 µM; in the experiment with Calu-6, 1.89 µM; in the experiment on DLD-1, 7.49 µM; in the experiment on HCC1954, 3.69 µM; with HCC38 it was 5.77 µM. In addition, the IC50 with HCT-8 stood at 4.74 µM; with HT-29 it was 2.96 µM; in the experiment with Hutu 80, 1.63 µM; with JIMT-1 it was 8.49 µM; with LS174T, 2.37 µM; with MDA-MB-157, 5.82 µM. For the same molecule, the IC50 in the experiment with MDA-MB-231 worked out at 6.98 µM; in the experiment with MDA-MB-453, 3.04 µM; in the experiment on MDA-MB-468 it was 3.18 µM; in the experiment with NC-H196, 2.83 µM; in the experiment with NCl-H1395, 7.6 µM; in the experiment with NCl-H1703 it was 1.85 µM. Besides, the IC50 with NCl-H226 is 7.33 µM; with NCl-H292 it was 0.95 µM; with OVISE, 7.33 µM; with OVSAHO, 6.53 µM; in the experiment on OVTOKO, greater than 10 µM; with SW527, 6.69 µM.

By IC50 is commonly meant the concentration needed to halve the response being measured. By EC50 is commonly meant the concentration at which the effect is half-maximal.
